Counter-ions that a name gives are not always drawn. Like-named read-outs stand apart in the source and are kept apart here.
Test system: HSV-1
Test: HSV-1 infection of Vero 76 cells, viral DNA detected by hybridization capture (chemiluminescence)
Type: cell-based
How it was run: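 Vero 76 cells infected 45 min at 37° C with HSV-1 (MOI=0.001), seeded at 5×10^4 cells/well in 2% FBS medium with compounds, incubated 40–48 h, then lysed in 0.2 N NaOH/1% detergent. Viral DNA captured by UL13 plasmid, hybridized overnight at 42° C with digoxigenin-labeled UL15 probe, detected by anti-digoxigenin-HRP chemiluminescence.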

[1] = Human alphaherpesvirus 1, HSV-1 in Vero 76 cells, MOI=0.001, compounds incubated 40–48 hours at 37° C., read-out: IC50

Compound	IC50 [1] [µM]	IC50 (Human alphaherpesvirus 1, Vero 76) [µM]
c1ccc(-c2nn3c(NC4CCCC4)cccc3c2-c2ccnc(NC3CCCC3)n2)cc1 [Example 38, N-Cyclopentyl-3-[2-(cyclopentylamino)-4-pyrimidinyl]-2-phenylpyrazolo-[1,5-a]pyridin-7-amine]	0.3	
COc1ccc(-c2nn3c(NCCCCN)cccc3c2-c2ccnc(NC3CCCC3)n2)cc1 [Example 81, N-[3-[2-(Cyclopentylamino)pyrimidin-4-yl]-2-(4-methoxyphenyl)-pyrazolo[1,5-a]pyridin-7-yl]butane-1,4-diamine]	0.6	
CCOP(=O)(NCCCCNc1cccc2c(-c3ccnc(NC4CCCC4)n3)c(-c3ccc(OC)cc3)nn12)OCC [Example 89, Diethyl 4-{[3-[2-(cyclopentylamino)pyrimidin-4-yl]-2-(4-methoxyphenyl)pyrazolo[1,5-a]pyridin-7-yl]amino}butylamidophosphate]		0.8
c1cc(NC2CCCC2)n2nc(-c3ccc(OCC4CC4)cc3)c(-c3ccnc(NC4CCCC4)n3)c2c1 [Example 11, N-Cyclopentyl-3-[2-(cyclopentylamino)-4-pyrimidinyl]-2-[4-(cyclopropyl-methoxy)phenyl]pyrazolo[1,5-a]pyridin-7-amine]	0.3	
COc1ccc(-c2nn3c(NCCN4CCOCC4)cccc3c2-c2ccnc(NC3CC3)n2)cc1 [Example 65, 3-[2-(Cyclopropylamino)-4-pyrimidinyl]-2-(4-methoxyphenyl)-N-[2-(4-morpholinyl)ethyl]pyrazolo[1,5-a]pyridin-7-amine]	0.5	
CS(=O)(=O)Nc1cccc(-c2nn3c(NC4CCCC4)cccc3c2-c2ccnc(NC3CCCC3)n2)c1 [Example 36, N-(3-{7-(Cyclopentylamino)-3-[2-(cyclopentylamino)-4-pyrimidinyl]-pyrazolo[1,5-a]pyridin-2-yl}phenyl)methanesulfonamide]	3	
Clc1cccc(-c2nn3c(NC4CCCC4)cccc3c2-c2ccnc(NC3CC3)n2)c1 [Example 100, 2-(3-Chlorophenyl)-N-cyclopentyl-3-[2-(cyclopropylamino)-4-pyrimidinyl]pyrazolo[1,5-a]pyridin-7-amine]	0.3	
COc1ccc(-c2nn3c(N4CCCC4)cccc3c2-c2ccnc(N)n2)cc1 [Example 3, 4-[2-(4-Methoxyphenyl)-7-(1-pyrrolidinyl)pyrazolo[1,5-a]pyridin-3-yl]-2-pyrimidinamine]	5	
Nc1nccc(-c2c(-c3cccc(Br)c3)nn3c(N4CCCC4)cccc23)n1 [Example 28, 4-[2-(3-Bromophenyl)-7-(1-pyrrolidinyl)pyrazolo[1,5-a]pyridin-3-yl]-2-pyrimidinamine]	5	
Oc1ccc(-c2nn3c(NC4CCCC4)cccc3c2-c2ccnc(NC3CCCC3)n2)cc1 [Example 4, 4-{7-(Cyclopentylamino)-3-[2-(cyclopentylamino)-4-pyrimidinyl]pyrazolo-[1,5-a]pyridin-2-yl}phenol]	1	
NC(=O)c1cccc(-c2nn3c(NC4CCCC4)cccc3c2-c2ccnc(NC3CCCC3)n2)c1 [Example 40, 3-{7-(Cyclopentylamino)-3-[2-(cyclopentylamino)-4-pyrimidinyl]-pyrazolo[1,5-a]pyridin-2-yl}benzamide]	2.5	

More lines, in order of falling IC50 [1], values ahead:

IC50 [1] [µM]	Compound	IC50 (Human alphaherpesvirus 1, Vero 76) [µM]
27	CCCCNc1nccc(-c2c(-c3ccc(N4CCOCC4)cc3)nn3c(NCCCC)cccc23)n1 [Example 75, N-Butyl-3-[2-(butylamino)pyrimidin-4-yl]-2-(4-morpholin-4-ylphenyl)pyrazolo[1,5-a]pyridin-7-amine]	
16	CCCCNc1nccc(-c2c(-c3ccc(Nc4ccccc4)cc3)nn3c(N(CCCC)c4ccccc4)cccc23)n1 [Example 20, 2-(4-Anilinophenyl)-N-butyl-3-[2-(butylamino)-4-pyrimidinyl]-N-phenylpyrazolo[1,5-a]pyridin-7-amine]	
6.2	COc1ccc(-c2nn3c(NCC(=O)N4CCCC4)cccc3c2-c2ccnc(NC3CCCC3)n2)cc1 [Example 94, 3-[2-(Cyclopentylamino)-4-pyrimidinyl]-2-(4-methoxyphenyl)-N-[2-oxo-2-(1-pyrrolidinyl)ethyl]pyrazolo[1,5-a]pyridin-7-amine]	
2	c1cc(-c2ccncc2)cc(-c2nn3c(NC4CCCC4)cccc3c2-c2ccnc(NC3CCCC3)n2)c1 [Example 31, N-Cyclopentyl-3-[2-(cyclopentylamino)-4-pyrimidinyl]-2-[3-(4-pyridinyl)phenyl]pyrazolo[1,5-a]pyridin-7-amine]	
1.4	COc1ccc(-c2nn3c(NC4CCCC4)cccc3c2-c2ccnc(NC3CCCC3)n2)cc1Br [Example 42, N-{4-[2-(3-Bromo-4-methoxyphenyl)-7-(cyclopentylamino)pyrazolo[1,5-a]pyridin-3-yl]-2-pyrimidinyl}-N-cyclopentylamine]	
1.3	COc1ccc(-c2nn3c(NC4CC4)cccc3c2-c2ccnc(NC3CC3)n2)cc1 [Example 66, N-Cyclopropyl-3-[2-(cyclopropylamino)-4-pyrimidinyl]-2-(4-methoxyphenyl)pyrazolo[1,5-a]pyridin-7-amine]	
1.1	COc1cccc(-c2nn3c(N(C)C)cccc3c2-c2ccnc(NC3CCCC3)n2)c1 [Example 53, 3-[2-(Cyclopentylamino)-4-pyrimidinyl]-2-(3-methoxyphenyl)-N,N-dimethylpyrazolo[1,5-a]pyridin-7-amine]	
0.65	Oc1cccc(-c2nn3c(NC4CCCC4)cccc3c2-c2ccnc(NC3CCCC3)n2)c1 [Example 54, 3-{7-(Cyclopentylamino)-3-[2-(cyclopentylamino)-4-pyrimidinyl]pyrazolo[1,5-a]pyridin-2-yl}phenol]	
0.6	COc1ccc(-c2nn3c(NCCCCNS(C)(=O)=O)cccc3c2-c2ccnc(NC3CCCC3)n2)cc1 [Example 86, N-(4-{[3-[2-(Cyclopentylamino)pyrimidin-4-yl]-2-(4-methoxyphenyl)pyrazolo[1,5-a]pyridin-7-yl]amino}butyl)methanesulfonamide]	
0.5	N#Cc1cccc(-c2nn3c(NC4CCCC4)cccc3c2-c2ccnc(NC3CCCC3)n2)c1 [Example 39, 3-{7-(Cyclopentylamino)-3-[2-(cyclopentylamino)-4-pyrimidinyl]pyrazolo[1,5-a]pyridin-2-yl}benzonitrile]	
0.5	Clc1cccc(-c2nn3c(NC4CC4)cccc3c2-c2ccnc(NC3CC3)n2)c1 [Example 99, 2-(3-Chlorophenyl)-N-cyclopropyl-3-[2-(cyclopropylamino)-4-pyrimidinyl]pyrazolo[1,5-a]pyridin-7-amine]	
0.3	COc1ccc(-c2nn3c(NCCCCOP(=O)(O)O)cccc3c2-c2ccnc(NC3CCCC3)n2)cc1 [Example 92, 4-{[3-[2-(Cyclopentylamino)pyrimidin-4-yl]-2-(4-methoxy-phenyl)pyrazolo[1,5-a]pyridin-7-yl]amino}butyl phosphate diammonium salt]	
0.2	Clc1cccc(-c2nn3c(NC4CCCC4)cccc3c2-c2ccnc(NC3CCCC3)n2)c1 [Example 57, 2-(3-Chlorophenyl)-N-cyclopentyl-3-[2-(cyclopentylamino)-4-pyrimidinyl]pyrazolo[1,5-a]pyridin-7-amine]	
0.1	COCCNc1cccc2c(-c3ccnc(NC4CCCC4)n3)c(-c3ccc(OC)cc3)nn12 [Example 62, 3-[2-(Cyclopentylamino)-4-pyrimidinyl]-N-(2-methoxyethyl)-2-(4-methoxyphenyl)pyrazolo[1,5-a]pyridin-7-amine]	
